In the supplement of paper PMC12463676, “Small-molecule dissolution of stress granules by redox modulation benefits ALS models” (Nature Chemical Biology, 2025):

Experiments:
[1] = compound: NC(=O)CCCCC1CCSS1 [lipoamide]; test: thermal stability z-score vs DMSO; higher = more thermally stabilized by treatment; details: HeLa, lipoamide concentration 100 µM
Method: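 Cellular thermal proteome profiling in HeLa cells. Cells were treated with 100 µM lipoamide for 1 h, with or without 1 mM arsenate for a further 1 h, then heated to ten temperatures (37-66.3 °C), and soluble protein was quantified by TMT mass spectrometry relative to 0.1% DMSO controls. The thermal stability score (sum of log2 fold changes minus the abundance score) was transformed to a z-score; mean of n = 3 experiments.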

[2] = compound: O=[As]([O-])(O)O.[K+] [potassium arsenate]; test: as above; details: HeLa; arsenate concentration 1 mM
Method: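 Cellular thermal proteome profiling in HeLa cells treated with 1 mM arsenate for 1 h (DMSO pretreatment), heated to ten temperatures (37-66.3 °C). Soluble protein was quantified by TMT mass spectrometry relative to DMSO controls; the thermal stability score was transformed to a z-score; mean of n = 3 experiments.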

[3] = arsenate co-treatment: 1 mM arsenate 1 h
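Further: each temperature applied for 3 min, abundance score taken as mean log2 fold change at the two lowest temperatures, z-score obtained by mean subtraction and division by SD.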

Chain of UniProt P19447 (P19447 whole entry): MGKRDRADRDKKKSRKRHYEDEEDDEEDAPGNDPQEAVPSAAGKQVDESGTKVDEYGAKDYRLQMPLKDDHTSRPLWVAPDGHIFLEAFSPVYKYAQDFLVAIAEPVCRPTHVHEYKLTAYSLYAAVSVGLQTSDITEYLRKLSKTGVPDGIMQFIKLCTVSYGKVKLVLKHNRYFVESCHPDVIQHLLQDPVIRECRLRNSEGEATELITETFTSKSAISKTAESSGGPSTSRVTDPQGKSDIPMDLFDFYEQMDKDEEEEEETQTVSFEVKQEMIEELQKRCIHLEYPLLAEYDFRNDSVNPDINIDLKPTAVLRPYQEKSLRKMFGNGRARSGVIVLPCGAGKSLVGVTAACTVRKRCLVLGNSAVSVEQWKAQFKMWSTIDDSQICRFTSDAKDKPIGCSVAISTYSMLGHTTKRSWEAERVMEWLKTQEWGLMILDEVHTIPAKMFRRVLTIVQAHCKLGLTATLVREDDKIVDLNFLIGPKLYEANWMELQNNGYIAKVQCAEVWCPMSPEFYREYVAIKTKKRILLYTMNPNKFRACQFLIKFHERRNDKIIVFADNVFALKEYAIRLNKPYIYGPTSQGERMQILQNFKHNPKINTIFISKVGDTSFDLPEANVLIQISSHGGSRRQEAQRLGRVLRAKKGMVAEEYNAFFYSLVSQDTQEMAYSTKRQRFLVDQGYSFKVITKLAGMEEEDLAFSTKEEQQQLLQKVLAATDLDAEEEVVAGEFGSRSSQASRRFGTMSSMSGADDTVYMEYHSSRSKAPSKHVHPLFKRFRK
Chain of UniProt Q9Y2C4 (Q9Y2C4 whole entry): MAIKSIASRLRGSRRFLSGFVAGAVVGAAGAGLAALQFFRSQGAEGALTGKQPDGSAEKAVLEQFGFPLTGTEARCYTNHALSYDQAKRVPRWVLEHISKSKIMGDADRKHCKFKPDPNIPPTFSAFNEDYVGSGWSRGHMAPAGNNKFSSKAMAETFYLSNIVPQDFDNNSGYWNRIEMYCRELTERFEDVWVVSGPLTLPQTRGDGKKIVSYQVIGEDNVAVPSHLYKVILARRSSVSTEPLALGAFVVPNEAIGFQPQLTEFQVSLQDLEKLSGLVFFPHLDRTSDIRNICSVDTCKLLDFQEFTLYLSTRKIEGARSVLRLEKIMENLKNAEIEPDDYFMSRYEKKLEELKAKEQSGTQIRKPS
Chain of UniProt Q9Y6I3 (Q9Y6I3 whole entry): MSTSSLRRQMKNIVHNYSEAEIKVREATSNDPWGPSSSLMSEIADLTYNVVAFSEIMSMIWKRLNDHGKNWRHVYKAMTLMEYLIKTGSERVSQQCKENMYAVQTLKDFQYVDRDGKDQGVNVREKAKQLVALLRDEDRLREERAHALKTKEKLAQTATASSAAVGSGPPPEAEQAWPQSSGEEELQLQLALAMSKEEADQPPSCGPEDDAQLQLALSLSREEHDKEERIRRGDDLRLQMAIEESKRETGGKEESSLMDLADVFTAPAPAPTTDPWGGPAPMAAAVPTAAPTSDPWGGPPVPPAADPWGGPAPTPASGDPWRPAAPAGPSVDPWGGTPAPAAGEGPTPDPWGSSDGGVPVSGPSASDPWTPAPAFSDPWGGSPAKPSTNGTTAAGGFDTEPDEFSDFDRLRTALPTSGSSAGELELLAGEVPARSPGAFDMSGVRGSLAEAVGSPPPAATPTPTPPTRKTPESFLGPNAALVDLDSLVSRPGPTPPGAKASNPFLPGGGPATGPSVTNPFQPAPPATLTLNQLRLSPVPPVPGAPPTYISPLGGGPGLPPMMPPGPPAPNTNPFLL
Chain of UniProt Q96RT1 (Q96RT1 whole entry): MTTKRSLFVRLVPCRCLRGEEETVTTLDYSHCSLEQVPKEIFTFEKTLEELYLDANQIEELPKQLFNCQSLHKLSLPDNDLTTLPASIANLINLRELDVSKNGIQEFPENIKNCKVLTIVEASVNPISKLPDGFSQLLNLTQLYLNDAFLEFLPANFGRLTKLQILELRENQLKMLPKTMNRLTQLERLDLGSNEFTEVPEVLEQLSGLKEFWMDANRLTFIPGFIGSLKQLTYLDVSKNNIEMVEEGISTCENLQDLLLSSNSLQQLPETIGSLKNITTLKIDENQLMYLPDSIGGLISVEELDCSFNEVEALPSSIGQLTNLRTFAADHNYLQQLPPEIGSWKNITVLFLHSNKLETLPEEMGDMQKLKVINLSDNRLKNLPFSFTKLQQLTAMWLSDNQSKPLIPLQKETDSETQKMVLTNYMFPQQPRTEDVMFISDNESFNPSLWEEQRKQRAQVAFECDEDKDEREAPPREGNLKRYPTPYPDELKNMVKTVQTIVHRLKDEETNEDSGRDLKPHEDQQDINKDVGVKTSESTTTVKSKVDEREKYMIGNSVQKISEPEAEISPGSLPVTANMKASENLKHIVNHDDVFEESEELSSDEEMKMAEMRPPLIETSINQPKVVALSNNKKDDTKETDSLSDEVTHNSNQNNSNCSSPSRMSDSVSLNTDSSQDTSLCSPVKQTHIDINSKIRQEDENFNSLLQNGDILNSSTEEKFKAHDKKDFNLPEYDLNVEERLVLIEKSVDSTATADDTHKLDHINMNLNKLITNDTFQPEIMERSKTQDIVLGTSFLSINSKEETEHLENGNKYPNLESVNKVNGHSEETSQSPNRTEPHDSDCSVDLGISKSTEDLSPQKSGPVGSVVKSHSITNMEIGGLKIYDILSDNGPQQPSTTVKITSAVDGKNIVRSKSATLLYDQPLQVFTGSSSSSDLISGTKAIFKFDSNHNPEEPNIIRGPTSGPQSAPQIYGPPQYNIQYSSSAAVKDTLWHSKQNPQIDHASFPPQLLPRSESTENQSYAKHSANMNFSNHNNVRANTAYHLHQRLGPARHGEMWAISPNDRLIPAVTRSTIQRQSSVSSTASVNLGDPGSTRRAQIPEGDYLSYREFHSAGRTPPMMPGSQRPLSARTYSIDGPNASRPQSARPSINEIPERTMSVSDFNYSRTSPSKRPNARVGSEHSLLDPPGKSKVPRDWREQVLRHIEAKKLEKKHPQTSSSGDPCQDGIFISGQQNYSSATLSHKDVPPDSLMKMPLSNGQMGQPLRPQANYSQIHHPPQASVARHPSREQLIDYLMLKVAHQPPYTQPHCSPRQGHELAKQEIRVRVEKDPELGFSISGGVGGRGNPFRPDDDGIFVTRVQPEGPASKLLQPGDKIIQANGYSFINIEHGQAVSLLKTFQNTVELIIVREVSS
Chain of UniProt Q96A65 (Q96A65 whole entry): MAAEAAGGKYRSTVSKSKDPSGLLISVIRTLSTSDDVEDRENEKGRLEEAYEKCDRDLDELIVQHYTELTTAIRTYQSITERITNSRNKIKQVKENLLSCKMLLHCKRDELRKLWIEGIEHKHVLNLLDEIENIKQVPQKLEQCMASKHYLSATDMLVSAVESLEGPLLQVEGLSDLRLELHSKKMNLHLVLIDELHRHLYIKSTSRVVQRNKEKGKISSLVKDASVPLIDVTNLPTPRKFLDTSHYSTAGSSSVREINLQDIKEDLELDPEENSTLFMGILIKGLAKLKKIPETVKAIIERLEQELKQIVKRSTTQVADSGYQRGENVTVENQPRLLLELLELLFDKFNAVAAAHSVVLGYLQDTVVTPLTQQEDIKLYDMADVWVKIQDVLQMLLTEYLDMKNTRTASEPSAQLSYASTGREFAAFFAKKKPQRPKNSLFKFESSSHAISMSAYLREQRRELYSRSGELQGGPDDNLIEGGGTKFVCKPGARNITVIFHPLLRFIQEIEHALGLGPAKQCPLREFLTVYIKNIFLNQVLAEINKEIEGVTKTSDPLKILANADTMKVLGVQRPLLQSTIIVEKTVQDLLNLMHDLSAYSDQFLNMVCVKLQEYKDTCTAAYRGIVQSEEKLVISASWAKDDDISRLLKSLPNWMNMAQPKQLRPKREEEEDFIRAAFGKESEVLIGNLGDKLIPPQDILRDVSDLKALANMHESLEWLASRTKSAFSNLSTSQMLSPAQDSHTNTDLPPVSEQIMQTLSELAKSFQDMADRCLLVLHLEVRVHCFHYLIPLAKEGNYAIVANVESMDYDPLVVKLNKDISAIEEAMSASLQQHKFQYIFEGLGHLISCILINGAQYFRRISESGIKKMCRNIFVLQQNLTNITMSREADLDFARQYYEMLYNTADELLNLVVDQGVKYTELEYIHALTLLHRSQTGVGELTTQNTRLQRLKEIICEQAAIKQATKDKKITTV
Chain of UniProt Q96DZ1 (Q96DZ1 whole entry): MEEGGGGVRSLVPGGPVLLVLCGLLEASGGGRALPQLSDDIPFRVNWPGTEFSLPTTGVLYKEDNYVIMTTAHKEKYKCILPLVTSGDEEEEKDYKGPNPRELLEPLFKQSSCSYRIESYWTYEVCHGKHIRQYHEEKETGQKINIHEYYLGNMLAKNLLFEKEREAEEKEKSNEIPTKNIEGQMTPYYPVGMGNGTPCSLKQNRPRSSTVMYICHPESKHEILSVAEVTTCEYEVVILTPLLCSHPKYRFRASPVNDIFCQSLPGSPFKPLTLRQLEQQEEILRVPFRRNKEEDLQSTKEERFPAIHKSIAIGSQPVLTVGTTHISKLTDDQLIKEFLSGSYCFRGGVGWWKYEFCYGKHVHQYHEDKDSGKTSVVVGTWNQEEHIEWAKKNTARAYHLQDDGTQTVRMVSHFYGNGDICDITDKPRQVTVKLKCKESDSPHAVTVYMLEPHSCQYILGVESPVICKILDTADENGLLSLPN
Chain of UniProt Q9Y3B2 (Q9Y3B2 whole entry): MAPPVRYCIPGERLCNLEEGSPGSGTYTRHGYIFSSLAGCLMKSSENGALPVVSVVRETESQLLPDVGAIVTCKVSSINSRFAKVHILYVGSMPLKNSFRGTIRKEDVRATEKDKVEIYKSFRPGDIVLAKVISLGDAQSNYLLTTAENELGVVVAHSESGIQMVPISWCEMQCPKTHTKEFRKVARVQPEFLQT

Row | Target | thermal stability z-score [1, 3] | thermal stability z-score ([1]; arsenate co-treatment: none) | thermal stability z-score [2]
1 | EPB41 (UniProt P11171) | -0.424 | -0.262 | -0.0292
2 | EPB41L1 (UniProt Q9H4G0) | -0.509 | -0.127 | 0.139
3 | EPB41L2 (UniProt O43491) | -0.283 | -0.0411 | 0.128
4 | EPHA2 (UniProt P29317) | -0.528 | -0.029 | -0.211
5 | EPHA5 (UniProt P54756) | 0.8 | 0.338 | 0.746
6 | EPHB4 (UniProt P54760) | -0.297 | -0.194 | 0.295
7 | EPHX1 (UniProt P07099) | 3.16 | 3.19 | 0.24
8 | EPM2AIP1 (UniProt Q7L775) | -0.0474 | 0.0432 | -0.0491
9 | EPN1 (UniProt Q9Y6I3) | 0.241 | 0.408 | 0.491
10 | EPN2 (UniProt O95208) | 1.13 | 0.804 | -0.0882
11 | EPPK1 (UniProt P58107) | -0.00734 | 0.0541 | -0.359
12 | EPRS (UniProt P07814) | -0.648 | -0.436 | 0.432
13 | EPS8L2 (UniProt Q9H6S3) | 0.124 | 0.0219 | 1.1
14 | EPS15 (UniProt P42566) | -0.339 | -0.0217 | -0.469
15 | EPS15L1 (UniProt Q9UBC2) | 0.0401 | 0.0523 | 0.4
16 | ERAL1 (UniProt O75616) | -0.329 | -0.113 | -0.45
17 | ERAP1 (UniProt Q9NZ08) | -2.65 | -2.68 | 0.97
18 | ERBB2 (UniProt P04626) | 0.166 | 0.0799 | 0.0442
19 | ERBB2IP (UniProt Q96RT1) | 0.354 | -0.307 | -1.94
20 | ERC1 (UniProt Q8IUD2) | -0.3 | -0.166 | 0.574
21 | ERCC1 (UniProt P07992) | -0.168 | 0.0263 | 0.0982
22 | ERCC2 (UniProt P18074) | 0.408 | 0.701 | 0.0533
23 | ERCC3 (UniProt P19447) | 0.0686 | 0.0573 | 0.156
24 | ERCC4 (UniProt Q92889) | -0.252 | 0.00197 | -0.123

Row | Target | thermal stability z-score [1, 3] | thermal stability z-score ([1]; arsenate co-treatment: none) | thermal stability z-score [2]
25 | ERCC5 (UniProt P28715) | 0.121 | 0.0638 | 0.401
26 | ERCC6 | 1.08 | 0.347 | -0.581
27 | ERCC6L (UniProt Q2NKX8) | -0.457 | -0.258 | 0.265
28 | ERGIC1 (UniProt Q969X5) | -1.39 | -1.4 | 0.483
29 | ERGIC2 (UniProt Q96RQ1) | -0.942 | -0.866 | -0.232
30 | ERGIC3 (UniProt Q9Y282) | -1.11 | -0.784 | -0.464
31 | ERI1 (UniProt Q8IV48) | 0.0943 | 0.343 | -1.14
32 | ERI3 (UniProt O43414) | 0.468 | 0.154 | 0.102
33 | ERLEC1 (UniProt Q96DZ1) | -2.84 | -2.07 | 0.593
34 | ERLIN1 (UniProt O75477) | -3.16 | -2.57 | -1.15
35 | ERLIN2 (UniProt O94905) | -1.05 | -0.752 | -0.0487
36 | ERMP1 (UniProt Q7Z2K6) | 0.0556 | -0.119 | 0.227
37 | ERO1A (UniProt Q96HE7) | -0.923 | 0.193 | 0.59
38 | ERP29 (UniProt P30040) | -0.51 | -0.193 | 0.32
39 | ERP44 (UniProt Q9BS26) | -2.86 | -2.35 | 0.885
40 | ESD (UniProt P10768) | -0.53 | -0.395 | 0.445
41 | ESF1 (UniProt Q9H501) | 0.105 | 0.129 | 0.24
42 | ESPL1 (UniProt Q14674) | 0.424 | -0.509 | 1.94
43 | ESRP2 (UniProt Q9H6T0) | -0.121 | 0.00175 | 0.0815
44 | ESYT1 (UniProt Q9BSJ8) | -0.86 | -0.642 | 0.595
45 | ESYT2 (UniProt A0FGR8) | -0.934 | -0.479 | -0.306
46 | ETF1 (UniProt P62495) | 0.635 | 0.513 | -0.148
47 | ETFA (UniProt P13804) | -0.622 | 0.0342 | -1.17
48 | ETFB (UniProt P38117) | -0.321 | 0.54 | -1.2

Row | Target | thermal stability z-score [1, 3] | thermal stability z-score ([1]; arsenate co-treatment: none) | thermal stability z-score [2]
49 | ETFDH (UniProt Q16134) | 0.283 | 0.37 | -0.886
50 | ETHE1 (UniProt O95571) | 0.217 | -0.107 | 0.0234
51 | ETNK1 (UniProt Q9HBU6) | 0.392 | 1.06 | 0.244
52 | EVI5 (UniProt O60447) | -0.272 | 0.322 | 0.704
53 | EVL (UniProt Q9UI08) | -0.0697 | 0.187 | -0.462
54 | EVPL (UniProt Q92817) | 0.263 | 0.134 | 0.499
55 | EWSR1 (UniProt Q01844) | 0.0495 | 0.235 | -0.604
56 | EXD2 (UniProt Q9NVH0) | -0.228 | -0.168 | -0.499
57 | EXOC1 (UniProt Q9NV70) | -0.268 | 0.043 | 0.0191
58 | EXOC2 (UniProt Q96KP1) | -0.195 | -0.453 | 0.575
59 | EXOC3 (UniProt O60645) | -0.653 | -0.0663 | 0.149
60 | EXOC4 (UniProt Q96A65) | -0.433 | -0.0966 | 0.0526
61 | EXOC5 (UniProt O00471) | -0.0743 | 0.105 | -0.0647
62 | EXOC6 (UniProt Q8TAG9) | -0.242 | -0.374 | -0.201
63 | EXOC6B (UniProt Q9Y2D4) | 0.36 | 1.01 | 0.332
64 | EXOC7 (UniProt Q9UPT5) | -0.927 | -0.435 | -0.227
65 | EXOC8 (UniProt Q8IYI6) | -0.0845 | 0.0172 | -0.106
66 | EXOG (UniProt Q9Y2C4) | -0.359 | -0.451 | 0.587
67 | EXOSC1 (UniProt Q9Y3B2) | 0.0998 | -1.26 | -0.615
68 | EXOSC2 (UniProt Q13868) | 0.567 | 0.234 | -0.593
69 | EXOSC3 (UniProt Q9NQT5) | 0.273 | -0.000548 | -0.385
70 | EXOSC4 (UniProt Q9NPD3) | 0.821 | -0.104 | -0.872
71 | EXOSC5 (UniProt Q9NQT4) | 1.79 | 1.03 | -0.564
